In EP0327492A1, “Herbicidally and plantgrowth regulatory active quinoline and pyrindine compounds” (CIBA-GEIGY AG, priority 1988, dated 1989):

Columns and labels:
Format in all cases: in vivo
Abutilon [1] = assay: Pre-emergent herbicidal action (B.2); details: 500 bis 2000 [g/ha], evaluated after 3 weeks
Procedure: (§1) Im Gewächshaus wird unmittelbar nach der Einsaat der Versuchspflanzen in Saatschalen die Erdoberfläche mit einer wässrigen Dispersion der Wirkstoffe, erhalten aus einem 25 %igen Emulsionskonzentrat behandelt. Es werden Konzentrationen von 2000-500 g Wirksubstanz/Hektar angewendet. Die Saatschalen werden im Gewächshaus bei 22-25° C und 50-70 % relativer Luftfeuchtigkeit gehalten und der Versuch nach 3 Wochen ausgewertet und die Resultate nach folgender Notenskala ausgewertet. • 1 Pflanze hat nicht gekeimt oder ist eingegangen • 2-3 sehr starke Schäden • 4 starke Schäden • 5 mittlere Schäden, die Pflanzen sind verkümmert • 6 Schäden, die Pflanze kann regenerieren • 7-8 leichte Schäden • 9 normales Wachstum, wie das unbehandelter Pflanzen
(§2) Boniturnoten von 1 bis 4 (insbesondere von 1 bis 3) weisen auf eine gute bis sehr gute Herbizidwirkung hin. Boniturnoten von 6 bis 9 (insbesondere 7 bis 9) weisen auf eine gute Toleranz (insbesondere bei Kulturpflanzen) hin.

Bromus tectorum [2] = assay: Pre-emergent herbicidal action (B.2); details: 500 bis 2000 [g/ha], evaluated after 3 weeks
Procedure: as §1, §2

Solanum nigrum [3] = assay: Pre-emergent herbicidal action (B.2); details: 500 bis 2000 [g/ha], evaluated after 3 weeks
Procedure: as §1, §2

Amaranthus ret. [4] = assay: Pre-emergent herbicidal action (B.2); details: 500 bis 2000 [g/ha], evaluated after 3 weeks
Procedure: as §1, §2

Chenopodium Sp. [5] = assay: Pre-emergent herbicidal action (B.2); details: 500 bis 2000 [g/ha], evaluated after 3 weeks
Procedure: as §1, §2

Digitaria sang. [6] = assay: Pre-emergent herbicidal action (B.2); details: 500 bis 2000 [g/ha], evaluated after 3 weeks
Procedure: as §1, §2

Chrysanthe. leuc. [7] = assay: Pre-emergent herbicidal action (B.2); details: 500 bis 2000 [g/ha], evaluated after 3 weeks
Procedure: as §1, §2

Echinochloa crus galli [8] = assay: Pre-emergent herbicidal action (B.2); details: 500 bis 2000 [g/ha], evaluated after 3 weeks
Procedure: as §1, §2

Veronica Sp. [9] = assay: Pre-emergent herbicidal action (B.2); details: 500 bis 2000 [g/ha], evaluated after 3 weeks
Procedure: as §1, §2

Stellaria [10] = assay: Pre-emergent herbicidal action (B.2); details: 500 bis 2000 [g/ha], evaluated after 3 weeks
Procedure: as §1, §2

Ipomoea = assay: Pre-emergent herbicidal action (B.2); details: 500 bis 2000 [g/ha], evaluated after 3 weeks
Procedure: as §1, §2

Sinapis [11] = assay: Pre-emergent herbicidal action (B.2); details: 500 bis 2000 [g/ha], evaluated after 3 weeks
Procedure: as §1, §2

Sorghum halep. [12] = assay: Pre-emergent herbicidal action (B.2); details: 500 bis 2000 [g/ha], evaluated after 3 weeks
Procedure: as §1, §2

Lolium perenne [13] = assay: Pre-emergent herbicidal action (B.2); details: 500 bis 2000 [g/ha], evaluated after 3 weeks
Procedure: as §1, §2

Galium aparine [14] = assay: Pre-emergent herbicidal action (B.2); details: 500 bis 2000 [g/ha], evaluated after 3 weeks
Procedure: as §1, §2

Avena fatua [15] = assay: Pre-emergent herbicidal action (B.2); details: 500 bis 2000 [g/ha], evaluated after 3 weeks
Procedure: as §1, §2

Alopecurus myos. [16] = assay: Pre-emergent herbicidal action (B.2); details: 500 bis 2000 [g/ha], evaluated after 3 weeks
Procedure: as §1, §2

Abutilon [17] = assay: Post-emergent herbicidal action, contact herbicide (B.3); details: 500 bis 2000 [g/ha], 15 days after treatment
Procedure: as §1, §2
(§3) Eine Anzahl Unkräuter, sowohl monokotyle wie dikotyle, werden nach dem Auflaufen (im 4- bis 6-Blattstadium) mit einer wässrigen Wirkstoffdispersion in einer Dosierung von 2000-500 g Wirksubstanz pro Hektar auf die Pflanzen gespritzt und diese bei 24°-26°C und 45-60 % relativer Luftfeuchtigkeit gehalten. 15 Tage nach der Behandlung wird der Versuch nach dem in Beispiel B.2. gegebenen Massstab bewertet.

Bromus tectorum [18] = assay: as above; details: 500 bis 2000 [g/ha], 15 days after treatment
Procedure: as §1, §2, §3

Solanum nigrum [19] = assay: as above; details: 500 bis 2000 [g/ha], 15 days after treatment
Procedure: as §1, §2, §3

Amaranthus ret. [20] = assay: as above; details: 500 bis 2000 [g/ha], 15 days after treatment
Procedure: as §1, §2, §3

Chenopodium Sp. [21] = assay: as above; details: 500 bis 2000 [g/ha], 15 days after treatment
Procedure: as §1, §2, §3

Digitaria sang. [22] = assay: as above; details: 500 bis 2000 [g/ha], 15 days after treatment
Procedure: as §1, §2, §3

Chrysanthe. leuc. [23] = assay: as above; details: 500 bis 2000 [g/ha], 15 days after treatment
Procedure: as §1, §2, §3

Echinochloa crus galli [24] = assay: as above; details: 500 bis 2000 [g/ha], 15 days after treatment
Procedure: as §1, §2, §3

Veronica Sp. [25] = assay: as above; details: 500 bis 2000 [g/ha], 15 days after treatment
Procedure: as §1, §2, §3

Stellaria [26] = assay: as above; details: 500 bis 2000 [g/ha], 15 days after treatment
Procedure: as §1, §2, §3

Sinapis [27] = assay: as above; details: 500 bis 2000 [g/ha], 15 days after treatment
Procedure: as §1, §2, §3

Sorghum halep. [28] = assay: as above; details: 500 bis 2000 [g/ha], 15 days after treatment
Procedure: as §1, §2, §3

Xanthium Sp. = assay: as above; details: 500 bis 2000 [g/ha], 15 days after treatment
Procedure: as §1, §2, §3

Lolium perenne [29] = assay: as above; details: 500 bis 2000 [g/ha], 15 days after treatment
Procedure: as §1, §2, §3

Galium aparine [30] = assay: as above; details: 500 bis 2000 [g/ha], 15 days after treatment
Procedure: as §1, §2, §3

Avena fatua [31] = assay: as above; details: 500 bis 2000 [g/ha], 15 days after treatment
Procedure: as §1, §2, §3

Alopecurus myos. [32] = assay: as above; details: 500 bis 2000 [g/ha], 15 days after treatment
Procedure: as §1, §2, §3

CC1CCc2nc3c(cc2C1)C(=O)N1C(=O)C(C)(C(C)C)N=C31 (stereo not shown) [Verbindung 3.01, 2,8-Dimethyl-2-isopropyl-7,8,9,10-tetrahydro-3H,5H-imidazo[1',2':1,2]pyrrolo[3,4-b]chinolin-3,5-dion]
Herbizidwirkung (Abutilon [1]): gute bis sehr gute Herbizidwirkung (Boniturnoten von 1 bis 4 (insbesondere von 1 bis 3) weisen auf eine gute bis sehr gute Herbizidwirkung hin) | Herbizidwirkung (Bromus tectorum [2]): gute bis sehr gute Herbizidwirkung (Boniturnoten von 1 bis 4 (insbesondere von 1 bis 3) weisen auf eine gute bis sehr gute Herbizidwirkung hin) | Herbizidwirkung (Solanum nigrum [3]): gute bis sehr gute Herbizidwirkung (Boniturnoten von 1 bis 4 (insbesondere von 1 bis 3) weisen auf eine gute bis sehr gute Herbizidwirkung hin) | Herbizidwirkung (Amaranthus ret. [4]): gute bis sehr gute Herbizidwirkung (Boniturnoten von 1 bis 4 (insbesondere von 1 bis 3) weisen auf eine gute bis sehr gute Herbizidwirkung hin) | Herbizidwirkung (Chenopodium Sp. [5]): gute bis sehr gute Herbizidwirkung (Boniturnoten von 1 bis 4 (insbesondere von 1 bis 3) weisen auf eine gute bis sehr gute Herbizidwirkung hin) | Herbizidwirkung (Digitaria sang. [6]): gute bis sehr gute Herbizidwirkung (Boniturnoten von 1 bis 4 (insbesondere von 1 bis 3) weisen auf eine gute bis sehr gute Herbizidwirkung hin) | Herbizidwirkung (Chrysanthe. leuc. [7]): gute bis sehr gute Herbizidwirkung (Boniturnoten von 1 bis 4 (insbesondere von 1 bis 3) weisen auf eine gute bis sehr gute Herbizidwirkung hin) | Herbizidwirkung (Echinochloa crus galli [8]): gute bis sehr gute Herbizidwirkung (Boniturnoten von 1 bis 4 (insbesondere von 1 bis 3) weisen auf eine gute bis sehr gute Herbizidwirkung hin) | Herbizidwirkung (Veronica Sp. [9]): gute bis sehr gute Herbizidwirkung (Boniturnoten von 1 bis 4 (insbesondere von 1 bis 3) weisen auf eine gute bis sehr gute Herbizidwirkung hin) | Herbizidwirkung (Stellaria [10]): gute bis sehr gute Herbizidwirkung (Boniturnoten von 1 bis 4 (insbesondere von 1 bis 3) weisen auf eine gute bis sehr gute Herbizidwirkung hin) | Herbizidwirkung (Ipomoea): gute bis sehr gute Herbizidwirkung (Boniturnoten von 1 bis 4 (insbesondere von 1 bis 3) weisen auf eine gute bis sehr gute Herbizidwirkung hin) | Herbizidwirkung (Sinapis [11]): gute bis sehr gute Herbizidwirkung (Boniturnoten von 1 bis 4 (insbesondere von 1 bis 3) weisen auf eine gute bis sehr gute Herbizidwirkung hin) | Herbizidwirkung (Sorghum halep. [12]): gute bis sehr gute Herbizidwirkung (Boniturnoten von 1 bis 4 (insbesondere von 1 bis 3) weisen auf eine gute bis sehr gute Herbizidwirkung hin) | Herbizidwirkung (Lolium perenne [13]): gute bis sehr gute Herbizidwirkung (Boniturnoten von 1 bis 4 (insbesondere von 1 bis 3) weisen auf eine gute bis sehr gute Herbizidwirkung hin) | Herbizidwirkung (Galium aparine [14]): gute bis sehr gute Herbizidwirkung (Boniturnoten von 1 bis 4 (insbesondere von 1 bis 3) weisen auf eine gute bis sehr gute Herbizidwirkung hin) | Herbizidwirkung (Avena fatua [15]): gute bis sehr gute Herbizidwirkung (Boniturnoten von 1 bis 4 (insbesondere von 1 bis 3) weisen auf eine gute bis sehr gute Herbizidwirkung hin) | Herbizidwirkung (Alopecurus myos. [16]): gute bis sehr gute Herbizidwirkung (Boniturnoten von 1 bis 4 (insbesondere von 1 bis 3) weisen auf eine gute bis sehr gute Herbizidwirkung hin) | Herbizidwirkung (Abutilon [17]): gute bis sehr gute Herbizidwirkung (Boniturnoten von 1 bis 4 (insbesondere von 1 bis 3) weisen auf eine gute bis sehr gute Herbizidwirkung hin) | Herbizidwirkung (Bromus tectorum [18]): gute bis sehr gute Herbizidwirkung (Boniturnoten von 1 bis 4 (insbesondere von 1 bis 3) weisen auf eine gute bis sehr gute Herbizidwirkung hin) | Herbizidwirkung (Solanum nigrum [19]): gute bis sehr gute Herbizidwirkung (Boniturnoten von 1 bis 4 (insbesondere von 1 bis 3) weisen auf eine gute bis sehr gute Herbizidwirkung hin) | Herbizidwirkung (Amaranthus ret. [20]): gute bis sehr gute Herbizidwirkung (Boniturnoten von 1 bis 4 (insbesondere von 1 bis 3) weisen auf eine gute bis sehr gute Herbizidwirkung hin) | Herbizidwirkung (Chenopodium Sp. [21]): gute bis sehr gute Herbizidwirkung (Boniturnoten von 1 bis 4 (insbesondere von 1 bis 3) weisen auf eine gute bis sehr gute Herbizidwirkung hin) | Herbizidwirkung (Digitaria sang. [22]): gute bis sehr gute Herbizidwirkung (Boniturnoten von 1 bis 4 (insbesondere von 1 bis 3) weisen auf eine gute bis sehr gute Herbizidwirkung hin) | Herbizidwirkung (Chrysanthe. leuc. [23]): gute bis sehr gute Herbizidwirkung (Boniturnoten von 1 bis 4 (insbesondere von 1 bis 3) weisen auf eine gute bis sehr gute Herbizidwirkung hin) | Herbizidwirkung (Echinochloa crus galli [24]): gute bis sehr gute Herbizidwirkung (Boniturnoten von 1 bis 4 (insbesondere von 1 bis 3) weisen auf eine gute bis sehr gute Herbizidwirkung hin) | Herbizidwirkung (Veronica Sp. [25]): gute bis sehr gute Herbizidwirkung (Boniturnoten von 1 bis 4 (insbesondere von 1 bis 3) weisen auf eine gute bis sehr gute Herbizidwirkung hin) | Herbizidwirkung (Stellaria [26]): gute bis sehr gute Herbizidwirkung (Boniturnoten von 1 bis 4 (insbesondere von 1 bis 3) weisen auf eine gute bis sehr gute Herbizidwirkung hin) | Herbizidwirkung (Sinapis [27]): gute bis sehr gute Herbizidwirkung (Boniturnoten von 1 bis 4 (insbesondere von 1 bis 3) weisen auf eine gute bis sehr gute Herbizidwirkung hin) | Herbizidwirkung (Sorghum halep. [28]): gute bis sehr gute Herbizidwirkung (Boniturnoten von 1 bis 4 (insbesondere von 1 bis 3) weisen auf eine gute bis sehr gute Herbizidwirkung hin) | Herbizidwirkung (Xanthium Sp.): gute bis sehr gute Herbizidwirkung (Boniturnoten von 1 bis 4 (insbesondere von 1 bis 3) weisen auf eine gute bis sehr gute Herbizidwirkung hin) | Herbizidwirkung (Lolium perenne [29]): gute bis sehr gute Herbizidwirkung (Boniturnoten von 1 bis 4 (insbesondere von 1 bis 3) weisen auf eine gute bis sehr gute Herbizidwirkung hin) | Herbizidwirkung (Galium aparine [30]): gute bis sehr gute Herbizidwirkung (Boniturnoten von 1 bis 4 (insbesondere von 1 bis 3) weisen auf eine gute bis sehr gute Herbizidwirkung hin) | Herbizidwirkung (Avena fatua [31]): gute bis sehr gute Herbizidwirkung (Boniturnoten von 1 bis 4 (insbesondere von 1 bis 3) weisen auf eine gute bis sehr gute Herbizidwirkung hin) | Herbizidwirkung (Alopecurus myos. [32]): gute bis sehr gute Herbizidwirkung (Boniturnoten von 1 bis 4 (insbesondere von 1 bis 3) weisen auf eine gute bis sehr gute Herbizidwirkung hin)
